This passage reports Kd results from PMC12247152, “Nature‐Inspired Compounds Targeting Escherichia coli WrbA as Biofilm‐Modulating Agents: Computational Design, Synthesis, and Biological Evaluation” (Archiv Der Pharmazie, 2025).

For this experiment, the target named is T1, WrbA (Escherichia coli, UniProt P0A8G6).
T1 construct: recombinant WrbA protein
T1 sequence (P0A8G6 2-198): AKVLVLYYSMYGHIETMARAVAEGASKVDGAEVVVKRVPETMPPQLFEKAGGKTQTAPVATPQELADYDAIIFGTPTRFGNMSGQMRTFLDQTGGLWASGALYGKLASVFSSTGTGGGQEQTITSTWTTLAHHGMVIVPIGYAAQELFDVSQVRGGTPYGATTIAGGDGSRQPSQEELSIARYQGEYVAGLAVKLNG
In words: microscale thermophoresis (MST). The experiment is classed as binding. To be noted: read-out: K d ± confidence. (MST reads how a fluorescent partner responds to local heating, with and without ligand.)
For `CC1(C)CC(=O)c2c(O)cc(OCC(N)=O)cc2O1` [1a, 2‐[(5‐Hydroxy‐2,2‐dimethyl‐4‐oxochroman‐7‐yl)oxy]acetamide], the Kd came out at 18.7 ± 6.3 µM.

Consider `CC1(C)CC(=O)c2c(O)cc(OCC(=O)NCCNCc3ccccc3)cc2O1` [1c, N‐[2‐(Benzylamino)ethyl]‐2‐[(5‐hydroxy‐2,2‐dimethyl‐4‐oxochroman‐7‐yl)oxy]acetamide], for which the Kd stood at 1.4 ± 0.7 µM.

In the case of `CC1(C)CC(=O)c2c(O)cc(OCC(=O)NCc3cccc(Cl)c3)cc2O1` [1d, N‐(3‐Chlorobenzyl)‐2‐[(5‐hydroxy‐2,2‐dimethyl‐4‐oxochroman‐7‐yl)oxy]acetamide], the Kd amounted to 5 ± 1.8 µM.

With `CC1(C)CC(=O)c2c(O)cc(OCC(=O)NCc3cccc4ccccc34)cc2O1` [1e, 2‐[(5‐Hydroxy‐2,2‐dimethyl‐4‐oxochroman‐7‐yl)oxy]‐N‐(naphthalen‐1‐ylmethyl)acetamide], the Kd is 2.1 ± 1.3 µM.
